Measurements reported in patent US7786106B2, “Substituted benzene derivatives or salts thereof” (Astellas Pharma Inc., priority 2003, dated 2010).
Where a name gives a salt, the structure may show the parent alone.

Key:
[1] = molecular target: T1, human factor Xa (Homo sapiens, UniProt P00742); assay: In vitro test on measurement of coagulation time by human activated blood coagulation factor X (human plasma); assay type: biochemical; conditions: for Test on Measurement of Coagulation Time by Human Activated Blood Coagulation Factor X (CT2): CT2 = concentration by which the coagulation time is prolonged 2-fold, human blood plasma; for anti-blood coagulation action (extension of coagulation time), in words: in vitro, human plasma
T1 construct: purchased Enzyme Research Labs
T1 sequence (P00742 235-488 limits assumed): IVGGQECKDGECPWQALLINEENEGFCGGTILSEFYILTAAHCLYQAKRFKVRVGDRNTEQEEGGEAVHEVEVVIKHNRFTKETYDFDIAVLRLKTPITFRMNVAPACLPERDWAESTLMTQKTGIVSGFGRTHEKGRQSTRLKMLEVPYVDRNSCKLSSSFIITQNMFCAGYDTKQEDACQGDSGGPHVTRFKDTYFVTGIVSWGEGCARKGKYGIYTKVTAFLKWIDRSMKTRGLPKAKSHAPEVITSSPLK
T1 sequence (P00742 41-179 partner limits assumed): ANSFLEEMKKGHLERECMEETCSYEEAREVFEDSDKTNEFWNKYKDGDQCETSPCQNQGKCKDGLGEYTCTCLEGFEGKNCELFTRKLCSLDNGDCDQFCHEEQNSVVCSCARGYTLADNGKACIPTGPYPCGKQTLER
Experimental: 1) An In Vitro Test on Measurement of Coagulation Time by Human Activated Blood Coagulation Factor X
To 90 μl of human blood plasma were added 10 μl of a drug or a physiological saline and 50 μl of human factor Xa (Enzyme Research Labs), incubation was carried out at 30° C. for 3 minutes, 100 μl of 20 mM CaCl2 previously warmed at 37° C. were added and the time until coagulation was measured by a coagulo-meter (KC10 of Amelung). With regard to the human blood plasma, each 45 ml of blood were collected from vein of elbow of six healthy persons using a syringe in which 5 ml of 3.8% sodium citrate were contained and centrifuged at 4° C. for 15 minutes at 3,000 rpm and the separate blood plasma was pooled and frozen, then thawed before use. With regard to the human factor Xa, the concentration by which the coagulation time when a physiological saline solution (control) was added was about 30 to 40 seconds was selected. A CT2 value (concentration by which the coagulation time is prolonged to an extent of 2-fold) was determined by plotting the drug concentrations and relative value (fold) of the coagulation time to the control, followed by subjecting to linear regression.

[2] = test system: extrinsic coagulation time (PT); assay: Ex vivo measurement of coagulation time in cynomolgus monkeys (oral administration), extrinsic coagulation time (PT); conditions: for Test on Measurement of Coagulation Time in Cynomolgus Monkeys (PT): relative ratio of coagulation time to control, blood collection point with the most potent extension
Experimental: 4) Test on Ex Vivo Measurement of Coagulation Time in Cynomolgus Monkeys (Oral Administration)
A drug (5 mg/ml or 0.5 mg/ml) which was dissolved (suspended) in 0.5% methylcellulose was compulsorily administered per os at a dose of 2 ml/kg (10 mg/kg or 1 mg/kg) via an oral gavage after blood collection before the administration of the drug to a male cynomolgus monkeys (body weight around 4 kg) fasted for 12 hours or longer and, after 1, 2, 4, 6 and 8 hour(s), 2 ml of blood was collected from femoral vein using 1/10 volume of 3.8% sodium citrate and blood plasma was separated by means of centrifugal treatment of 3,000 rpm for 10 minutes. Using the resulting blood plasma, extrinsic coagulation time (PT) and intrinsic coagulation time (APTT) were measured in accordance with the following methods a) and b). The experiment was carried out under non-anesthetization.
a) Extrinsic Coagulation Time (PT)
Ortho Brain Thromboplastin (54 mg/vial; a freeze-dried preparation; Ortho-Clinical Diagnostics) was dissolved in 2.5 ml of Milli-Q water and preliminarily warmed at 37° C. The above-separated blood plasma (50 μl) was warmed at 37° C. for 1 minute, 50 μl of the above-mentioned thromboplastin solution was added and the coagulation time was measured. KC10 of Amelung was used for the measurement of the coagulation time.

SMILES	Test on Measurement of Coagulation Time by Human Activated Blood Coagulation Factor X (CT2) [1]	anti-blood coagulation action (extension of coagulation time), in words [1]	Test on Measurement of Coagulation Time in Cynomolgus Monkeys (PT) ([2]; 1 mg/kg per os)	Test on Measurement of Coagulation Time in Cynomolgus Monkeys (PT) ([2]; 10 mg/kg per os)	extending action for the coagulation time compared with control (Example 44 of WO 00/39118) ([2]; same dose as control (10 mg/kg), oral, cynomolgus monkeys)
CC(C)N1CCC(C(=O)Nc2c(O)cc(Cl)cc2C(=O)Nc2ccc(Cl)cn2)CC1 [Example 18, 4′-chloro-2′-[(5-chloro-2-pyridyl)carbamoyl]-6′-hydroxy-1-isopropylpiperidine-4-carboxanilide hydrochloride]	0.153 µM	extend the coagulation time at low concentration	1.94		
CC(C)N1CCC(CNc2c(O)cc(Cl)cc2C(=O)Nc2ccc(Cl)cn2)CC1 [Example 10]	0.617 µM	extend the coagulation time at low concentration			
CC(C)N1CCC(C(=O)Nc2ccc(Cl)cc2C(=O)Nc2ccc(Cl)cn2)CC1 [Control Compound, reference compound]				2.00	
COC[C@H]1O[C@@H](Oc2cc(Br)cc(C(=O)Nc3ccc(Cl)cn3)c2NC(=O)C2CCN(C(C)C)CC2)[C@H](O)[C@@H](O)[C@@H]1O [Example 8]	0.137 µM	extend the coagulation time at low concentration			
CC(C)N1CCC(C(=O)Nc2c(O[C@@H]3O[C@H](CO)[C@H](O)[C@H](O)[C@H]3O)cc(Br)cc2C(=O)Nc2ccc(Cl)cn2)CC1 [Example 1, trifluoroacetate]	0.295 µM	extend the coagulation time at low concentration		7.69	longer extending action for the coagulation time
CC(C)N1CCC(C(=O)Nc2c(O)cc(Br)cc2C(=O)Nc2ccc(Cl)cn2)CC1 [Example 19, 4′-bromo-2′-[(5-chloro-2-pyridyl)carbamoyl]-6′-hydroxy-1-isopropylpiperidine-4-carboxanilide hydrochloride]			2.26		
CC(=O)N[C@H]1[C@H](Oc2cc(Br)cc(C(=O)Nc3ccc(Cl)cn3)c2NC(=O)C2CCN(C(C)C)CC2)O[C@H](CO)[C@@H](O)[C@@H]1O [Example 3, 2′-(2-acetamido-2-deoxy-β-D-glucopyranosyloxy)-4′-bromo-6′-[(5-chloro-2-pyridyl)-carbamoyl]-1-isopropylpiperidine-4-carboxanilide trifluoroacetate]				5.60	
